Tests used:
[1] = tested on: COS-7 cells overexpressing GFP-PABPN1 fusion proteins with 0, 10, or 17 Alas; assay: Cell survival by live microscopy of GFP positive cells; assay type: cell-based; details: day 5; 0.5 µM resveratrol, 2.5 µM sirtinol
Protocol: (§1) Cell culture and transfection. Twenty-four hours before transfection, COS-7 cells were seeded in Dulbeco's modified Eagle's medium (DMEM) containing 10% fetal calf serum at a concentration of 2 x 10^5 cells per well in 12-well plates suited for the automated live microscopy. The cells were transfected with plasmid DNA (1 µg) pre-complexed with the Plus reagent and diluted in Lipofectamine reagent according to the manufacturer's instructions. To check the protein expression before and after the drug treatment, parallel plates were prepared for Western blotting.
(§2) Drug treatment. Resveratrol and Sirtinol were dissolved in DMSO. In the initial cell treatment experiments, we performed dose-response experiments, using non-transfected cells, to define the most appropriate doses to be used for the drugs. […] The drugs or vehicle as a control were applied on transfected cells 24 h post-transfection. Cells (in the 12-well plate) were then incubated for 24 h before analysis using a Leica automated microscope stage.
Assessment of cell survival. Cell survival was assessed using live microscopy as previously described^12. Briefly, 12-well plates containing transfected cells treated or not treated with drugs were placed on a live stage microscope equipped with a digital camera, CO2 incubation chamber, and a motorized X-Y-axis stage and connected to the Openlab software (Improvision). The microscopic robotic stage allows parallel tracking of multiple fields, both within a single well and in multiple wells. […] The system was set to memorize three different fields of cells (from each separate well) and control the stage return to the same position at pre-fixed intervals. The microscope allowed us to return back to the same point and count the same cells in the field. Cell survival was monitored every 24 h for five consecutive days, with Day 1 corresponding to 24 h post-transfection before the drug treatment. On average, 150 cells per field per construct were counted. Cell viability was assayed by analysis of GFP positive cells. The average of cell survival of each group of cells was scored for the three different chosen fields and percent rescue calculated as ((test - control)/control*100). Three independent experiments were performed. ANOVA tests and Tukey's Multiple Comparison Test were used for statistics.

[2] = tested on: C. elegans transgenics expressing human PABPN1 with 10 or 13 Alas; assay: Muscle nuclei loss (MNL) drug assay in transgenic nematodes, counting GFP positive muscle cell nuclei; assay type: in vivo; details: for genetic dependence of the effect on MNL: PABPN1-A13 animals with null mutation of sir-2.1 (ok434), daf-16 (mu86) or aak-2 (ok524); for muscle nuclei loss (MNL) caused by PABPN1-A13 expression: PABPN1-A13 animals, 65 hours at 20°C in liquid culture, maximal achievable rescue 28 %; for muscle nuclei loss (MNL) in controls: PABPN1-A10 / control animals
Protocol: Analysis of muscle cells. Muscle cells in transgenic hermaphrodites were examined for loss of nuclei through counting GFP positive cells. Percent rescue was calculated as ((test - control)/control*100). Muscle cells in transgenic hermaphrodites were examined for PABPN1 expression through fluorescent microscopy. Whole animals were permeabilized and stained with the PABPN1 antiserum VEADa-14 (Centre de Recherche du CHUM, Montreal; 1:50), and fluorescent microscopy was conducted on a Zeiss microscope (Axioplan Imaging II). Observations of the structure of body wall muscles in young adult transgenics after Phalloidin-Rhodamin (FluoProbes) staining were performed as previously described^51. ANOVA tests and Tukey's Multiple Comparison Test were used for statistics.
(§3) Drug assays. Synchronized populations of L1 larvae expressing GFP and PABPN1 with 10 or 13 Alas were obtained by hypochlorite extraction. To test for muscle nuclei loss, animals were grown in 96-well microtiter plates in 50 µl liquid culture medium with sodium butyrate, resveratrol, sirtinol or splitomicin for 65 hours at 20°C, transferred to agarose pads on slides, and scored for cell nuclei loss at 10X-63X using a Zeiss fluorescence microscope (Axioplan Imaging II). 60 worms were scored per point and three independent assays performed. To test for motility, the synchronized L1 larvae were grown on NGM plates containing drugs until they became 1-5 day old adults. Animals were transferred to new plates every other day to keep them separate from progeny, then transferred to confluent OP-50.1 bacteria test plates and assessed for the number of whole body bends as described above (see Motility assays).

[3] = tested on: C. elegans transgenics expressing human PABPN1 with 10 or 13 Alas; assay: Motility drug assay, number of whole body bends; assay type: in vivo; details: for motility in controls: PABPN1-A10 / control animals; for genetic dependence of the effect on abnormal motility: PABPN1-A13 animals with null mutation of sir-2.1 (ok434), daf-16 (mu86) or aak-2 (ok524); for abnormal motility (frequency of body bends) produced by mutant PABPN1: PABPN1-A13 animals, sirtinol and splitomicin at day 5, resveratrol at day 3 of adulthood
Protocol: Motility assays. 1-5 day old adult hermaphrodites were laid on confluent OP-50-1. The animals were then scored immediately for whole body bends for a duration of 20 seconds as previously described^23, or photos of the tracks were taken using a 2,5X objective on a Zeiss microscope and their amplitudes measured using the Meta View software. 100 animals were scored per experiment and three independent assays performed. Percent rescue of the body bends phenotype was calculated as ((control - test)/control*100) and percent rescue of the sinusoid wave phenotype as ((test - control)/control*100). ANOVA tests and Tukey's Multiple Comparison Tests were used for statistics.
as §3

[4] = tested on: COS-7 cells transfected with normal (10 Alas) and mutant (17 Alas) PABPN1; assay: Histone acetylation analysis by western blot; assay type: cell-based; details: COS-7 cells expressing normal or mutant PABPN1, 500 µM or 5 mM for the last 24h
Protocol: as §1
Histone acetylation analysis. COS-7 cells transfected with normal (10 Alas) and mutant (17 Alas) PABPN1 cDNAs were plated for 48h and treated for the last 24h with 500 µM or 5 mM sodium butyrate. Controls included non-butyrate-treated cells. Cells were lysed in 10 mM Tris, 50 mM sodium bisulfite, 1% triton X-100, 10 mM magnesium chloride, 8.6% sucrose, pH 6.5 and a cocktail of proteases inhibitors for 10 min. Proteins were extracted under acidic conditions as described^53. Ten micrograms of whole cell extract were analysed by western blot. […] Signals were quantified using NIH IMAGE 1.62 and t tests used for statistical analysis.

[5] = tested on: non-transfected cells; assay: Dose-response experiments for cell toxicity; assay type: cell-based; details: five days, 0.5 µM resveratrol, 2.5 µM sirtinol
Protocol: as §2

CC(NC(=O)c1ccccc1/N=C/c1c(O)ccc2ccccc12)c1ccccc1 (stereo not shown) [sirtinol, 2-[(2-Hydroxynaphthalen-1-yl-methylene)amino]-N-(1-phenethyl)benzamide]
cell survival in cells overexpressing GFP-PABPN1 with 0 and 10 Alas [1]: no effects | cell survival in mutant PABPN1-A17 cells [1]: strongly enhanced cell survival | genetic dependence of the effect on MNL [2]: dependent on sir-2.1, daf-16 but not aak-2 | muscle nuclei loss (MNL) caused by PABPN1-A13 expression [2]: dose-dependent rescue of MNL | motility in controls [3]: no effect detected | genetic dependence of the effect on abnormal motility [3]: dependent on sir-2.1 and daf-16 | abnormal motility (frequency of body bends) produced by mutant PABPN1 [3]: rescued abnormal motility

O=C1CCc2c(ccc3ccccc23)O1 [splitomicin, 1,2-Dihydro-3H-naphtho[2,1-b]pyran-3-one]
muscle nuclei loss (MNL) in controls [2]: no effect in controls | muscle nuclei loss (MNL) caused by PABPN1-A13 expression [2]: rescued the MNL | motility in controls [3]: no effect in controls | abnormal motility (frequency of body bends) produced by mutant PABPN1 [3]: rescued the MNL and abnormal motility

CCCC(=O)[O-].[Na+] [sodium butyrate]
muscle nuclei loss (MNL) caused by PABPN1-A13 expression [2]: strong (the maximal achievable rescue is 28 %) rescue | level of acetylation of histone H3 [4]: increased | level of acetylation of histone H4 [4]: increased

Oc1ccc(C=Cc2cc(O)cc(O)c2)cc1 [resveratrol]
cell survival in cells overexpressing GFP-PABPN1 with 0 and 10 Alas [1]: no effects | cell survival in mutant PABPN1-A17 cells [1]: slightly decreased cell survival | cell toxicity [5]: did not cause cell toxicity | muscle nuclei loss (MNL) in controls [2]: no effect in PABPN1-A10 animals | genetic dependence of the effect on MNL [2]: mediated by sir-2.1 and aak-2 | muscle nuclei loss (MNL) caused by PABPN1-A13 expression [2]: enhanced MNL | genetic dependence of the effect on abnormal motility [3]: daf-16 independent and sir-2.1 and aak-2 dependent | abnormal motility (frequency of body bends) produced by mutant PABPN1 [3]: enhancement of abnormal motility

Reference: patent publication EP2014281A1, “Use of inhibitors of sirtuins and/or ampk for the preparation of a medicament for the treatment of polyalanine diseases” (INSTITUT NATIONAL DE LA SANTE ET DE LA RECHERCHE MEDICALE …, priority 2007, dated 2009)
